Experimental data published in patent publication US20160289745A1, “NUCLEIC ACID ASSAY FOR DIAGNOSING OR […] PATHOGEN INFECTION IN A BODILY FLUID FROM A SUBJECT TREATED WITH AN ANTI-[…]” (priority 2012, published 2016).

How the values were obtained:
[1] = test system: MTC strain (Mycobacterium tuberculosis); experiment: Drug susceptibility testing of the patient's MTC strain; assay type: cell-based
[2] = test system: Mycobacterium tuberculosis Complex (MTC); conditions: human, in vivo

Structure (SMILES)	drug susceptibility testing result ([1]; MTC strain of patient 21)	drug susceptibility testing result ([1]; MTC strain of patient 23)	analysis of DNA in urine [2]
NNC(=O)c1ccncc1 [Isoniazid]	resistance	resistance	
CCCc1cc(C(N)=S)ccn1 [Prothionamid]	resistance	resistance	
[H]/N=C(/N)N[C@H]1[C@H](O)[C@@H](O)[C@H](O[C@@H]2O[C@@H](C)[C@](O)(C=O)[C@H]2O[C@@H]2O[C@@H](CO)[C@H](O)[C@@H](O)[C@@H]2NC)[C@@H](N/C(N)=N\[H])[C@@H]1O [Streptomycin]	resistance	resistance	
Nc1ccc(C(=O)O)c(O)c1 [PAS, para-aminosalicylic acid]			negative
